Where two headings read alike, the source gives them in different places.
Tests used:
[1] = Drug levels in blood plasma and homogenized brain tissue by mass spectroscopy; type: in vivo; settings: iv, mouse; for concentration at 15 min: male, 3 mg/Kg i.v., occupancy study
Protocol: Ex Vivo Occupancy Assay. […] 7-9 weeks old male CD-1 mice were dosed intravenously in a vehicle consisting of 10% dimethylacetamide, 40% PEG-400, 30% hydroxypropyl betacyclodextrin, and 30% water with experimental compounds and the forebrains were harvested 15 minutes post-dosing by decapitation. The brain samples were immediately snap-frozen and stored at −80° C. On the following day, the dosed brain samples were thawed on ice for 15-20 minutes followed by homogenization using Polytron for 10 seconds in cold homogenization buffer composed of 50 mM KH2PO4 (pH adjusted to 7.4 with KOH), 1 mM EDTA, 0.005% Triton X 100 and protease inhibitor cocktail (Sigma Aldrich). The crude homogenates were further homogenized using a Dounce homogenizer and the homogenized membrane aliquots from all animals were flash-frozen and stored at −80° C. until further use. The whole homogenization process was performed on ice. For determining occupancy, the membrane homogenates were first thawed on ice and then needle-homogenized using a 25 gauge needle. The homogenized membrane (6.4 mg/ml) was added to a 96-well plate followed by addition of ^3H Ro 25-6981 (6 nM). The reaction mixture was incubated for 5 minutes on a shaker at 4° C. and then harvested onto GF/B filter plates (treated with 0.5% PEI for 1 hr at room temperature). The filter plates were dried at 50° C. for 20 mins, incubated with microscint 20 for 10 minutes and read on TopCount (Perkin Elmer). Each dose or compound group consisted of 4-5 animals. The control group of animals was dosed with vehicle alone. Membrane from each animal was added in triplicates to the assay plate. Non-specific binding was determined using 10 μM Ro 25-6981 added to the wells containing membrane homogenates from vehicle-dosed animals. […]
Drug levels were determined by mass spectroscopy in the usual manner. […]
Mouse Forced Swim Test (mFST). […] The duration of immobility was evaluated during the total 6 min of the test and expressed as duration (sec) of immobility. […]

[2] = target: NR2B-subtype NMDA receptors (Rattus norvegicus (Rat), UniProt P35439+Q00960); test: Radioligand binding assay (3H Ro 25-6981 competition, rat forebrain membranes); settings: 3H Ro 25-6981 (4 nM)
Protocol: Radioligand Binding Assay. Binding experiments to determine binding to NR2B-subtype NMDA receptors were performed on forebrains of 8-10 weeks old male Sprague Dawley rats (Harlan, Netherlands) using ^3H Ro 25-6981 (Mutel V; Buchy D; Klingelschmidt A; Messer J; Bleuel Z; Kemp J A; Richards J G. Journal of Neurochemistry, 1998, 70(5):2147-2155. Rats were decapitated without anesthesia using a Guillotine (approved by animal ethics committee) and the harvested brains were snap-frozen and stored at −80° C. for 3-6 months for membrane preparation.
For membrane preparation, rat forebrains were thawed on ice for 20 minutes in homogenization buffer composed of 50 mM KH2PO4 (pH adjusted to 7.4 with KOH), 1 mM EDTA, 0.005% Triton X 100 and protease inhibitor cocktail (Sigma Aldrich). Thawed brains were homogenized using a Dounce homogenizer and centrifuged at 48000×g for 20 min. The pellet was resuspended in cold buffer and homogenized again using a Dounce homogenizer. Subsequently, the homogenate was aliquoted, snap-frozen and stored at −80° C. for not more than 3-4 months.
To perform the competition binding assay, thawed membrane homogenate was added to each well of a 96-well plate (20 μg/well). The experimental compounds were serially diluted in 100% DMSO and added to each row of the assay plate to achieve desired compound concentrations, keeping the DMSO concentration in the assay plate at 1.33% of the final reaction volume. Next, ^3H Ro 25-6981 (4 nM) was added to the assay plate. After incubation for 1 hr at room temperature, the membrane bound radioligand was harvested on to GF/B filter plates (treated with 0.5% PEI for 1 hr at room temperature). The filter plates were dried at 50° C. for 20 mins, incubated with microscint 20 for 10 minutes and finally, the counts were read on TopCount (Perkin Elmer).

[3] = target: brain-resident NR2B-subtype receptors (Mus musculus (Mouse), UniProt P35438+Q01097); test: Ex vivo occupancy assay; type: in vivo; settings: iv, mouse
Protocol: Ex Vivo Occupancy Assay. […] 7-9 weeks old male CD-1 mice were dosed intravenously in a vehicle consisting of 10% dimethylacetamide, 40% PEG-400, 30% hydroxypropyl betacyclodextrin, and 30% water with experimental compounds and the forebrains were harvested 15 minutes post-dosing by decapitation. The brain samples were immediately snap-frozen and stored at −80° C. On the following day, the dosed brain samples were thawed on ice for 15-20 minutes followed by homogenization using Polytron for 10 seconds in cold homogenization buffer composed of 50 mM KH2PO4 (pH adjusted to 7.4 with KOH), 1 mM EDTA, 0.005% Triton X 100 and protease inhibitor cocktail (Sigma Aldrich). The crude homogenates were further homogenized using a Dounce homogenizer and the homogenized membrane aliquots from all animals were flash-frozen and stored at −80° C. until further use. The whole homogenization process was performed on ice. For determining occupancy, the membrane homogenates were first thawed on ice and then needle-homogenized using a 25 gauge needle. The homogenized membrane (6.4 mg/ml) was added to a 96-well plate followed by addition of ^3H Ro 25-6981 (6 nM). The reaction mixture was incubated for 5 minutes on a shaker at 4° C. and then harvested onto GF/B filter plates (treated with 0.5% PEI for 1 hr at room temperature). The filter plates were dried at 50° C. for 20 mins, incubated with microscint 20 for 10 minutes and read on TopCount (Perkin Elmer). Each dose or compound group consisted of 4-5 animals. The control group of animals was dosed with vehicle alone. Membrane from each animal was added in triplicates to the assay plate. Non-specific binding was determined using 10 μM Ro 25-6981 added to the wells containing membrane homogenates from vehicle-dosed animals. Specific counts/minute was converted to % occupancy at each dose of a compound for each animal using the following equation: […]
Drug levels were determined by mass spectroscopy in the usual manner. Drug levels in the blood plasma were 572 nM in at this dose, and drug levels in the homogenized brain tissue were 863 nM.

Sequence of brain-resident NR2B-subtype receptors (Q01097 27-1482, other chains not shown): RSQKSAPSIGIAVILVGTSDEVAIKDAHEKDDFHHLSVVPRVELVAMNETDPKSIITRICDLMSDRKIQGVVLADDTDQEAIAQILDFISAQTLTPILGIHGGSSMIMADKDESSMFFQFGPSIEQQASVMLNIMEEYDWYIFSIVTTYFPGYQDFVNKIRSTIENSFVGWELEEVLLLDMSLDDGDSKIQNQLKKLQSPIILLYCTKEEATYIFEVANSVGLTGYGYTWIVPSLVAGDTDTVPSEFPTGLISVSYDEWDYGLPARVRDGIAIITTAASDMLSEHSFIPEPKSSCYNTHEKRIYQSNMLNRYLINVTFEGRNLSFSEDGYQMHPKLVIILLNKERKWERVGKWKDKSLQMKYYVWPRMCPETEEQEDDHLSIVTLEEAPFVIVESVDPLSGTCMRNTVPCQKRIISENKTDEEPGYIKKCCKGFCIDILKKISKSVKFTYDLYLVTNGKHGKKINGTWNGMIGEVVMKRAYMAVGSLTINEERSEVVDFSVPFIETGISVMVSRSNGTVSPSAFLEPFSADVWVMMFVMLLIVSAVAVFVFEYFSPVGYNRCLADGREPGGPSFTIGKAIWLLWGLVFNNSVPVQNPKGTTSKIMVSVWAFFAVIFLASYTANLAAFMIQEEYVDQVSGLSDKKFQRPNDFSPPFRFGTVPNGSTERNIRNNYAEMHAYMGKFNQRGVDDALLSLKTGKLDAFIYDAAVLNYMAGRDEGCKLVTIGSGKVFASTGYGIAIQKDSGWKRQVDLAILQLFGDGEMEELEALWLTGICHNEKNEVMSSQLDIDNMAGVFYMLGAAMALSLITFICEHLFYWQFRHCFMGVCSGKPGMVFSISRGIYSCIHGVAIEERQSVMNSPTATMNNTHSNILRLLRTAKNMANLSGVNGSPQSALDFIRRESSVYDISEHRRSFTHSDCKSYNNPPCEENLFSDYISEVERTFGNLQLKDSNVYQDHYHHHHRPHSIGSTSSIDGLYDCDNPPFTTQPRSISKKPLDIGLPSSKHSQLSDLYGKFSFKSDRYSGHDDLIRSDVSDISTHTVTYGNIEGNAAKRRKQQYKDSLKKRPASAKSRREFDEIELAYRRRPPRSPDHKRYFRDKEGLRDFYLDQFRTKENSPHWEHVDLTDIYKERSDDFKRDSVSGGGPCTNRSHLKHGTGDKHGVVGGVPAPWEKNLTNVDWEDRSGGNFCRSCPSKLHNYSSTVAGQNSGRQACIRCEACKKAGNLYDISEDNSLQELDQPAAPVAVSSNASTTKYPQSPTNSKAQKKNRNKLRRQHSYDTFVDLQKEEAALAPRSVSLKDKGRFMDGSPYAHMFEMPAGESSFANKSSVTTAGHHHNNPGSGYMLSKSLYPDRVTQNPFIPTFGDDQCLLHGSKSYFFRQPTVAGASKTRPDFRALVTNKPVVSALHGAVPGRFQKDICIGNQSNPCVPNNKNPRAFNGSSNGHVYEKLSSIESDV
Sequence of NR2B-subtype NMDA receptors (Q00960 27-1482, other chains not shown): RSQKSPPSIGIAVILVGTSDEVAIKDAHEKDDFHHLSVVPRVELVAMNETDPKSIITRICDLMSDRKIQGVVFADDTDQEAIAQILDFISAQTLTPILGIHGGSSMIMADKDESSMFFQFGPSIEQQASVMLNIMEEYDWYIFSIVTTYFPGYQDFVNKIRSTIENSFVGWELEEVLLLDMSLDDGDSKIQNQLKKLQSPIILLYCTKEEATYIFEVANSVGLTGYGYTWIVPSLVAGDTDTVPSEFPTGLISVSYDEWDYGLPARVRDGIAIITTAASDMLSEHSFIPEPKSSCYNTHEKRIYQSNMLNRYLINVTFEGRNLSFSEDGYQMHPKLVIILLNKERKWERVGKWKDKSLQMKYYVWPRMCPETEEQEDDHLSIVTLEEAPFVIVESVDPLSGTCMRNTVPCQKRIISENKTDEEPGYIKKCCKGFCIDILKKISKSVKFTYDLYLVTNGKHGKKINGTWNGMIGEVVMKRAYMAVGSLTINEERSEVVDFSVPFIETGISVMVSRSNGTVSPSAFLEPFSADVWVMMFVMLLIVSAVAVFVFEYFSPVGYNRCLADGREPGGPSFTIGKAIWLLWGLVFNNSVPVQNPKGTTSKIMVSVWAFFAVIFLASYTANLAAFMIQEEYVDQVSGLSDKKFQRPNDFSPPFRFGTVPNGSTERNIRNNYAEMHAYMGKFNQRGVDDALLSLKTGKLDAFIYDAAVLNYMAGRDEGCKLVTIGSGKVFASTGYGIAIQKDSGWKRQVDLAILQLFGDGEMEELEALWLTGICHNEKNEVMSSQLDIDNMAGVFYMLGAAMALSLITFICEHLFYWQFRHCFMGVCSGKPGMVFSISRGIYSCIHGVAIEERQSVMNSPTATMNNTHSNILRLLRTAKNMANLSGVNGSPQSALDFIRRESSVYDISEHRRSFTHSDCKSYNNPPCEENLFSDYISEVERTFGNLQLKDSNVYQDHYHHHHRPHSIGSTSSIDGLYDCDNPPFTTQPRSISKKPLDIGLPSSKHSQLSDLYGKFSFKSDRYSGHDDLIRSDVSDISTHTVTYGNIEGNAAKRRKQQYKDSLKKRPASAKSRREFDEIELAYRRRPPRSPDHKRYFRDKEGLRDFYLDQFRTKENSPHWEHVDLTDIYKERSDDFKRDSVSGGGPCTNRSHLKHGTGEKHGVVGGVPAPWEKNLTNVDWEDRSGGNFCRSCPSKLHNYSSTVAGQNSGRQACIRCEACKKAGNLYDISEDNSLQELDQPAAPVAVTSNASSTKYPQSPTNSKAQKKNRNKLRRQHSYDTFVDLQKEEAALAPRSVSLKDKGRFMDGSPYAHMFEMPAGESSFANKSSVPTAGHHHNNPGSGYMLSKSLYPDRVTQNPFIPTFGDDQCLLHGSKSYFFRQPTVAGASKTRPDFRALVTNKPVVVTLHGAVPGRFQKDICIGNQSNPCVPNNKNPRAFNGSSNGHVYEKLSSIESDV

concentration at 15 min ([1]; CD-1, brain, read-out: drug levels in the homogenized brain tissue): 863 nM | concentration at 15 min ([1]; CD-1, plasma, read-out: Drug levels in the blood plasma): 572 nM | concentration at 21 min ([1]; plasma, 1 mg/Kg i.v., at end of forced swim test): 207 nM | Ki ([2]; listed as 10, P-1, read-out: NR2B Binding Ki): 3.2 nM | Ki ([2]; read-out: binding Ki): 3.2 nM | receptor occupancy at 1 mg/kg ([3]; 1 mg/Kg i.v., forced swim test animals): 69% | receptor occupancy at 3 mg/kg ([3]; 3 mg/Kg i.v., forebrain harvested 15 minutes post-dosing): 94%
Compound: Cc1ccc(CN2OCC(N3CCN(c4ccc(O)cn4)CC3)C2=O)cc1 (single isomer, unassigned) [Example 10, P-1, 4-(4-(5-hydroxypyridin-2-yl)piperazin-1-yl)-2-(4-methylbenzyl)isoxazolidin-3-one]

Source: patent US10501451B2, “Selective NR2B antagonists” (BRISTOL-MYERS SQUIBB COMPANY, priority 2015, dated 2019)
